Experimental data published in article PMC7699892, “Repositioned Drugs for Chagas Disease Unveiled via Structure-Based Drug Repositioning” (International Journal of Molecular Sciences, 2020).
Read-outs that look alike come from different tables or passages of the source.

Tests used:
[1] = test system: T. cruzi; design: method as in PMID 25033456; conditions: read-out: EC50, inhibition of T. cruzi growth in vitro; cited from earlier work; on Trypan. Activity: key: ? indicates unknown activity; + indicates indirect evidence of activity; ++ indicates direct evidence of activity
[2] = test system: T. cruzi; design: method as in per drug in column Reference of Table 2; conditions: class of literature evidence of trypanocidal activity; ref per drug in Table 2; cited from earlier work; on Trypan. Activity: key: ? indicates unknown activity; + indicates indirect evidence of activity; ++ indicates direct evidence of activity
[3] = target: T. cruzi DHFR; design: method as in PMID 12084467; conditions: read-out: Ki, inhibitor of T. cruzi DHFR; cited from earlier work
[4] = test system: T. cruzi Ninoa strain; experiment: in vivo short-term trypanocidal activity (parasitemia) in infected CD1 mice, Ninoa strain; design: species or system Trypanosoma cruzi in CD1 mice
Experimental: (§1) Parasitemia was monitored at 2, 4, 6, and 8 h after administration (see Figure 2).
(§2) CD1 strain mice, 6–8 weeks old, were used to maintain Ninoa and INC-5 strains of T. cruzi. Animals were given by the University of Science and Arts of Chiapas. To maintain the strains, animals were intraperitoneally inoculated every 14 days with 1 × 10^5 blood trypomastigote, obtained from parasite-infected mice. Parasitemia was monitored every three days by the Pizzi method. For this, 5 µL of blood from the caudal vein of infected mice were deposited on a slide and evenly distributed with an 18 × 18 mm coverslip. Parasite counting was performed by observing 15 microscopic fields using a 40 × objective lens. For the in vivo short term evaluation of the trypanocidal activity of the FDA-approved drugs, six groups of six CD1 mice each with homogeneous weight and parasitemia were used.
(§3) In vivo short-term evaluation of the trypanocidal activity of the FDA-approved drugs. Six groups of six CD1 female mice were infected with blood trypomastigotes of Ninoa and INC-5 strains following the methodology previously described in Romanha et al. and in Díaz-Chiguer et al.. At day 13 post-infection, when the infected mice reached an average of 5 × 10^6 parasites/mL, a single dose of the FDA-approved drugs at 100 mg/kg body weight was orally administered. Parasitemia was monitored following the Pizzi method at 2, 4, 6, and 8 h post-treatment […] using mineral oil as a vehicle. […] Mice examination was performed as stated in the Norma Official Mexicana (NOM-062-Z00-1999), published on August 2009.

[5] = test system: T. cruzi epimastigote (Ninoa strain); experiment: in vitro evaluation against epimastigotes, Ninoa strain (resazurin); type: cell-based; conditions: Trypanosoma cruzi, 48 h at 28 °C
Source text: (§4) The high-priority hit drugs were subjected to experimental validation in vitro, ex vivo, and in vivo, together with a cytotoxicity assay. Ninoa and INC-5 strains of T. cruzi were used in this study. […] In vitro evaluation of different FDA-approved drugs against Trypanosoma cruzi epimastigotes. The epimastigote stage of Ninoa and INC5 strains of T. cruzi were used to evaluated the in vitro trypanocidal activity of different FDA-approved drugs. Both strains were maintained in liver infusion tryptose (LIT) medium, supplemented with 10% fetal bovine serum (FBS) and 0.1% penicillin–streptomycin. They were preserved by transferring 1 × 10^6 parasites/mL into a new culture medium every week. […] All compounds were initially prepared at 10 mg/mL, using dimethyl sulfoxide (DMSO) as diluent. Serial dilutions were performed using complemented LIT medium until concentrations of 100 to 0.46 µg/mL of each drug were obtained. […] After the incubation period, 20 µL of 2.5 mM resazurin solution were added to each well and incubated for 3 h. All assays were carried out in triplicate.

[6] = test system: T. cruzi blood trypomastigote (INC-5 strain); experiment: ex vivo evaluation against blood trypomastigotes, INC-5 strain; type: cell-based; conditions: Trypanosoma cruzi
Source text: (§5) The high-priority hit drugs were subjected to experimental validation in vitro, ex vivo, and in vivo, together with a cytotoxicity assay. Ninoa and INC-5 strains of T. cruzi were used in this study. The Ninoa strain was obtained in 1986 by xenodiagnoses from an acute case of Chagas’ disease in Oaxaca, Mexico, whereas the INC-5 strain was obtained in 1997 from a chronic case of Chagas’ disease in a person in Guanajuato, Mexico.
(§6) Ex vivo evaluation of different FDA-approved drugs against Trypanosoma cruzi blood trypomastigotes. The ex vivo evaluation of the trypanocidal activity of the FDA-approved drugs was carried out according to the methodology described above. Blood from parasite infected animals was obtained from intracardiac puncture and diluted with phosphate-buffered saline (PBS), pH 7.2, until a concentration of 2 × 10^6 blood trypomastigotes/mL was obtained. From this, 195 µL of blood/well was placed in a 96-well plate and incubated at 4 °C for 24 h with 5 µL of each drug tested at different concentrations (5 µg/mL to […]). […] After incubation, live parasites were counted in a Neubauer chamber and the IC50 was calculated. Three independent experiments by triplicate were performed.

[7] = test system: T. cruzi blood trypomastigote (Ninoa strain); experiment: ex vivo evaluation against blood trypomastigotes, Ninoa strain; type: cell-based; conditions: Trypanosoma cruzi, 24 h at 4 °C
Source text: as §5, §6

[8] = test system: T. cruzi epimastigote (INC-5 strain); experiment: in vitro evaluation against epimastigotes, INC-5 strain (resazurin); type: cell-based; conditions: Trypanosoma cruzi, 48 h at 28 °C
Source text: as §4

[9] = test system: T. brucei; design: method as in Nenortas et al. 70; conditions: ref Nenortas et al. 70; read-out: EC50, active against T. brucei in vitro; cited from earlier work
[10] = test system: T. cruzi INC-5 strain; experiment: in vivo short-term trypanocidal activity (parasitemia) in infected CD1 mice, INC-5 strain; design: species or system Trypanosoma cruzi in CD1 mice
Experimental: as §1, §2, §3

[11] = test system: T. cruzi reverse transcriptase; design: method as in PMID 8913446; conditions: cited from earlier work

Compound | EC50 [1] | Trypan. Activity [2] | Ki [3] | Parasitemia inhibition percentage over the time, 2 horas Ninoa ([4]; 100 mg/kg oral, 2 horas, Ninoa) | Parasitemia inhibition percentage over the time, 4 horas Ninoa ([4]; 100 mg/kg oral, 4 horas, Ninoa) | Parasitemia inhibition percentage over the time, 6 horas Ninoa ([4]; 100 mg/kg oral, 6 horas (first column so headed), Ninoa) | Parasitemia inhibition percentage over the time, 6 horas Ninoa ([4]; 100 mg/kg oral, 6 horas (second, last column so headed), Ninoa) | parasitemia inhibition ([4]; mice infected with Ninoa strain, single oral dose 100 mg/kg, eight hours after administration) | IC50 [5] | IC50 ([6]; ex vivo, INC-5 strain, 24 h at 4 °C, read-out: T.cruzi blood trypomastigote IC50 INC-5) | IC50 ([6]; rounded value in the discussion, refers to Table 3, strain not stated, read-out: IC50, inhibitor of T. cruzi trypomastigotes) | IC50 [7] | IC50 [8] | EC50 [9] | Parasitemia inhibition percentage over the time, 2 horas INC-5 ([10]; 100 mg/kg oral, 2 horas, INC-5) | Parasitemia inhibition percentage over the time, 4 horas INC-5 ([10]; 100 mg/kg oral, 4 horas, INC-5) | Parasitemia inhibition percentage over the time, 6 horas INC-5 ([10]; 100 mg/kg oral, 6 horas (first column so headed), INC-5) | Parasitemia inhibition percentage over the time, 6 horas INC-5 ([10]; 100 mg/kg oral, 6 horas (second, last column so headed), INC-5) | parasitemia inhibition ([10]; mice infected with INC-5 strain, single oral dose 100 mg/kg, eight hours after administration) | inhibition of T. cruzi reverse transcriptase [11]
CCc1nc(N)nc(N)c1-c1ccc(Cl)cc1 [Pyrimethamine] | 3.8 µM | ++ | 100 nM | – | – | – | – | – | – | – | – | – | – | – | – | – | – | – | – | –
O=C(O)c1cn(C2CC2)c2cc(N3CCNCC3)c(F)cc2c1=O [Ciprofloxacin] | – | – | – | 100 | 50 | 33.3 | 33.3 | 66.7% | > 400 µM | 21.3 ± 0.09 µM | 21 µM | 25.7 ± 0.04 µM | > 400 µM | 52 µM | 100 | 75 | 62.5 | 56.2 | 43.8% | –
Cc1cn([C@H]2C[C@H](N=[N+]=[N-])[C@@H](CO)O2)c(=O)[nH]c1=O [Zidovudine] | – | ++ | – | – | – | – | – | – | – | – | – | – | – | – | – | – | – | – | – | does not inhibit
